A word on the IC50: it is the concentration that inhibits the measured activity by half. Low readings indicate greater potency in that assay, high ones weaker potency in that assay.

Drawing on ChEMBL document CHEMBL1145177, “Further naphthylcombretastatins. An investigation on the role of the naphthalene moiety” (J Med Chem, 2005), this text covers IC50 for 30 compounds.

Common to all, as to assay type: functional, cell-based
Assay [1] relates to A549. The experiment in a line: Inhibitory concentration value against human A-549 tumor cell line.
Assay [2] relates to HCT-116. Description: Inhibitory concentration value against human colon carcinoma H-116 tumor cell line.
The subject of assay [3] is P388. The experiment in a line: Inhibitory concentration value against murine P-388 tumor cell line. As to conditions: Mus musculus.
The subject of assay [4] is SK-MEL-28. The experiment in a line: Inhibitory concentration value against human MEL-28 tumor cell line.
Assay [5] concerns HT-29. The experiment in a line: Inhibitory concentration value against human colon adenocarcinoma HT-29 tumor cell line.

Turning to `FC(F)(F)Oc1cccc(/C=C\c2ccc3ccccc3c2)c1`, the IC50 in assay [1], in assay [2], in assay [3], in assay [4] and in assay [5] was 3.5 µM throughout.

As to `CC(=O)Oc1ccc(/C=C/c2ccc3ccccc3c2)cc1`, the concentration for half-maximal inhibition (IC50) in assay [1], in assay [2], in assay [3], in assay [4] and in assay [5] was greater than 5 µM each time.

Consider `Cc1ccc(/C=C\c2ccc3ccccc3c2)cc1`, for which the IC50 in assay [1], in assay [2], in assay [3], in assay [4] and in assay [5] was greater than 5 µM each time.

In the case of `FC(F)(F)c1ccc(/C=C\c2ccc3ccccc3c2)cc1`, the 50% inhibitory concentration (IC50) in assay [1], in assay [2], in assay [3], in assay [4] and in assay [5] was greater than 5 µM in each case.

On to `CN(C)c1ccc(/C=C\c2ccc3ccccc3c2)cc1`, for which the half-maximal inhibitory concentration (IC50) in assay [1], in assay [2], in assay [3], in assay [4] and in assay [5] was 3.66 µM each time.

On to `COCCOc1cc(/C=C\c2ccc3ccccc3c2)ccc1OC`, for which the IC50 in assay [1], in assay [2], in assay [3], in assay [4] and in assay [5] was 2.99 µM throughout.

For `C(=C/c1ccc2ccccc2c1)/c1ccoc1`, the 50% inhibitory concentration (IC50) in assay [1], in assay [2], in assay [3], in assay [4] and in assay [5] was greater than 5 µM each time.

`C(=C\c1ccco1)/c1ccc2ccccc2c1`: the IC50 in assay [1], in assay [2], in assay [3], in assay [4] and in assay [5] was greater than 5 µM in each case.

Regarding `Cc1ccc(/C=C/c2ccc3ccccc3c2)cc1`, the IC50 in assay [1], in assay [2], in assay [3], in assay [4] and in assay [5] was greater than 5 µM throughout.

Regarding `FC(F)(F)Oc1ccc(/C=C/c2ccc3ccccc3c2)cc1`, the IC50 in assay [1], in assay [2], in assay [3], in assay [4] and in assay [5] was greater than 5 µM in each case.

For the compound `COc1ccc(/C=C/c2ccc3ccccc3c2)cc1N`, the half-inhibitory concentration (IC50) is 1.82 µM in assay [1]; 1.82 µM in assay [2]; greater than 5 µM in assay [3]; greater than 5 µM in assay [4]; greater than 5 µM in assay [5].

As to `COCCOc1cc(/C=C/c2ccc3ccccc3c2)ccc1OC`, the IC50 in assay [1] was 2.99 µM; in assay [2], greater than 5 µM; in assay [3] it was 2.99 µM; in assay [4], 2.99 µM; in assay [5] it was greater than 5 µM.

In the case of `Cn1ccc2cc(/C=C\c3ccc4ccccc4c3)ccc21`, the concentration for half-maximal inhibition (IC50) in assay [1], in assay [2], in assay [3], in assay [4] and in assay [5] was greater than 5 µM throughout.

Consider `COc1ccc(/C=C\c2ccc3ccccc3c2)cc1[N+](=O)[O-]`, for which the IC50 in assay [1] is greater than 20 µM; in assay [2] it was greater than 20 µM; in assay [3], greater than 20 µM; in assay [4], greater than 20 µM; in assay [5], 3.28 µM.

Turning to `C(=C/c1ccc2[nH]ccc2c1)/c1ccc2ccccc2c1`, the concentration for half-maximal inhibition (IC50) in assay [1], in assay [2], in assay [3], in assay [4] and in assay [5] was greater than 5 µM throughout.

Regarding `COc1ccc(/C=C/c2ccc3ccccc3c2)cc1`, the 50% inhibitory concentration (IC50) in assay [1], in assay [2], in assay [3], in assay [4] and in assay [5] was greater than 5 µM in each case.

Turning to `C(=C/c1cccc2ccccc12)/c1ccc2ccccc2c1`, the 50% inhibitory concentration (IC50) in assay [1], in assay [2], in assay [3], in assay [4] and in assay [5] was 3.57 µM throughout.

Consider `COc1ccc(/C=C\c2ccc3ccccc3c2)cc1N`, for which the IC50 in assay [1] is greater than 20 µM; in assay [2], 0.36 µM; in assay [3] it was 1.82 µM; in assay [4] it was greater than 20 µM; in assay [5], 1.82 µM.

Turning to `CN(C)c1ccc(/C=C/c2ccc3ccccc3c2)cc1`, the half-maximal inhibitory concentration (IC50) in assay [1], in assay [2], in assay [3], in assay [4] and in assay [5] was 3.66 µM in each case.

Take `Oc1ccc(/C=C/c2ccc3ccccc3c2)cc1`: the 50% inhibitory concentration (IC50) in assay [1], in assay [2], in assay [3], in assay [4] and in assay [5] was 4.06 µM in each case.

Turning to `COc1ccc(/C=C/c2ccc3ccccc3c2)cc1F`, the IC50 was greater than 5 µM in assay [1]; greater than 5 µM in assay [2]; 4.49 µM in assay [3]; greater than 5 µM in assay [4]; greater than 5 µM in assay [5].

As to `CCN(CC)c1cc(/C=C/c2ccc3ccccc3c2)ccc1OC`, the 50% inhibitory concentration (IC50) in assay [1], in assay [2], in assay [3], in assay [4] and in assay [5] was greater than 5 µM each time.

On to `FC(F)(F)c1ccc(/C=C/c2ccc3ccccc3c2)cc1`, for which the IC50 in assay [1], in assay [2], in assay [3], in assay [4] and in assay [5] was greater than 5 µM each time.

As for `C(=C/c1ccc2ccccc2c1)/c1ccc2c(c1)-c1ccccc1C2`, the IC50 in assay [1], in assay [2], in assay [3], in assay [4] and in assay [5] was greater than 5 µM in each case.

On to `COc1ccc(/C=C/c2ccc3ccccc3c2)cc1C(=O)CN`, for which the IC50 in assay [1], in assay [2], in assay [3], in assay [4] and in assay [5] was greater than 5 µM throughout.

As for `O=S(=O)(c1ccccc1)n1ccc2cc(/C=C\c3ccc4ccccc4c3)ccc21`, the IC50 in assay [1], in assay [2], in assay [3], in assay [4] and in assay [5] was greater than 5 µM each time.

Consider `COc1ccc(/C=C/c2ccc3ccccc3c2)cc1[N+](=O)[O-]`, for which the half-inhibitory concentration (IC50) in assay [1], in assay [2], in assay [3], in assay [4] and in assay [5] was greater than 5 µM each time.

Regarding `Cn1c2ccccc2c2cc(/C=C\c3ccc4ccccc4c3)ccc21`, the IC50 in assay [1], in assay [2], in assay [3], in assay [4] and in assay [5] was greater than 5 µM in each case.

As for `C(=C/c1ccco1)/c1ccc2ccccc2c1`, the half-inhibitory concentration (IC50) in assay [1], in assay [2], in assay [3], in assay [4] and in assay [5] was greater than 5 µM each time.

With `COc1ccc(/C=C\c2ccc3ccccc3c2)cc1C(=O)CN`, the 50% inhibitory concentration (IC50) is 1.58 µM in assay [1]; greater than 5 µM in assay [2]; greater than 5 µM in assay [3]; greater than 5 µM in assay [4]; greater than 5 µM in assay [5].
